Measured values from patent US20240199542A1, “SUBSTITUTED PYRROLIDIN-2-ONES, SALTS THEREOF AND THEIR USE AS HERBICIDALLY ACTIVE SUBSTANCES” (Bayer Aktiengesellschaft, priority 2021, published 2024).

What was measured:
Format in all cases: in vivo
[1] = test system: Avena fatua (AVEFA); assay: Herbicidal pre-emergence action; conditions: graded after ca. 3 weeks
Text: (§1) Seeds of mono- and dicotyledonous weed plants and crop plants were sown, in plastic or organic planting pots, in sandy loam and covered with soil. The compounds according to the invention, formulated in the form of wettable powders (WP) or as emulsifiable concentrates (EC), were applied to the surface of the covering soil as aqueous suspension or emulsion, with the addition of 0.5% of an additive, at an application rate of 600 1 of water/ha (converted).
(§2) Following treatment, the pots were placed in a greenhouse and kept under optimum growth conditions for the test plants. The visual grading of the damage to the test plants was carried out after ca. 3 weeks in comparison to untreated controls (herbicidal effect in percent (%): 100% effect=plants have died off, 0% effect=as control plants).
(§3) Tables A1 to A16, below, show the effects of selected compounds of the general formula (I) according to table 1 on various harmful plants and an application rate corresponding to 1280 g/ha or lower obtained by the experimental procedure mentioned above.

[2] = test system: Alopecurus myosuroides (ALOMY); assay: Herbicidal pre-emergence action; conditions: graded after ca. 3 weeks
Text: as §1, §2, §3

[3] = test system: Cyperus esculentus (CYPES); assay: Herbicidal pre-emergence action; conditions: graded after ca. 3 weeks
Text: as §1, §2, §3

[4] = test system: Echinochloa crus-galli (ECHCG); assay: Herbicidal post-emergence action; conditions: assessed after ca. 3 weeks
Text: (§4) Seeds of mono- and dicotyledonous weed plants and crop plants were sown, in plastic or organic planting pots, in sandy loam, covered with soil and grown in a greenhouse under controlled growth conditions. 2 to 3 weeks after sowing, the test plants were sprayed in the single-leaf stage. The compounds according to the invention, formulated in form of wettable powders (WP) or as emulsifiable concentrates (EC), were sprayed onto the green plant parts as aqueous suspension or emulsion, with the addition of 0.5% of an additive, at an application rate of 600 1 of water/ha (converted). The test plants were placed in the greenhouse for ca. 3 weeks under optimum growth conditions, and then the effect of the preparations was assessed visually in comparison with untreated controls (herbicidal effect in percent (%): 100% effect=plants have died off, 0% effect=as control plants).
(§5) Tables B1 to B16 below show the effects of selected compounds of the general formula (I) according to table 1 on various harmful plants and an application rate corresponding to 1280 g/ha or 320 g/ha obtained by the experimental procedure mentioned above.

[5] = test system: Polygonum convolvulus (POLCO); assay: Herbicidal post-emergence action; conditions: assessed after ca. 3 weeks
Text: as §4, §5

[6] = test system: Lolium multiflorum (LOLMU); assay: Herbicidal post-emergence action; conditions: assessed after ca. 3 weeks
Text: as §4, §5

[7] = test system: Echinochloa crus-galli (ECHCG); assay: Herbicidal pre-emergence action; conditions: 1280 g/ha, graded after ca. 3 weeks
Text: as §1, §2, §3

[8] = test system: Setaria viridis (SETVI); assay: Herbicidal pre-emergence action; conditions: 1280 g/ha, graded after ca. 3 weeks
Text: as §1, §2, §3

[9] = test system: Lolium multiflorum (LOLMU); assay: Herbicidal pre-emergence action; conditions: 1280 g/ha, graded after ca. 3 weeks
Text: as §1, §2, §3

[10] = test system: Avena fatua (AVEFA); assay: Herbicidal post-emergence action; conditions: 1280 g/ha, assessed after ca. 3 weeks
Text: as §4, §5

[11] = test system: Alopecurus myosuroides (ALOMY); assay: Herbicidal post-emergence action; conditions: 1280 g/ha, assessed after ca. 3 weeks
Text: as §4, §5

[12] = test system: Viola tricolor (VIOTR); assay: Herbicidal pre-emergence action; conditions: 320 g/ha, graded after ca. 3 weeks
Text: as §1, §2, §3

[13] = test system: Veronica persica (VERPE); assay: Herbicidal pre-emergence action; conditions: 1280 g/ha, graded after ca. 3 weeks
Text: as §1, §2, §3

[14] = test system: Setaria viridis (SETVI); assay: Herbicidal post-emergence action; conditions: 1280 g/ha, assessed after ca. 3 weeks
Text: as §4, §5

Structure (SMILES) | Pre-emergence activity against ECHCG [7] | Pre-emergence activity against AVEFA ([1]; 1280 g/ha) | Pre-emergence activity against ALOMY ([2]; 1280 g/ha) | Pre-emergence activity against CYPES ([3]; 1280 g/ha) | Post-emergence activity against ECHCG ([4]; 1280 g/ha) | Post-emergence activity against ALOMY [11] | Post-emergence activity against POLCO ([5]; 1280 g/ha) | Post-emergence activity against LOLMU ([6]; 1280 g/ha) | also measured
O=C(CC1CCC(=O)N1Cc1cccc(F)c1F)OCCOc1ccccc1 (racemic) [Example I-027] | – | – | – | – | – | – | – | – | Pre-emergence activity against AVEFA ([1]; 320 g/ha): 90%; Pre-emergence activity against ALOMY ([2]; 320 g/ha): 80%; Pre-emergence activity against CYPES ([3]; 320 g/ha): 80%; Post-emergence activity against ECHCG ([4]; 320 g/ha): 90%; Post-emergence activity against POLCO ([5]; 320 g/ha): 80%; Post-emergence activity against LOLMU ([6]; 320 g/ha): 80%
C=CCCOC(=O)CC1CCC(=O)N1Cc1cccc(F)c1F (racemic) [Example I-026] | 90% | 100% | 90% | 90% | 80% | 80% | 80% | 80% | Pre-emergence activity against SETVI [8]: 80%; Pre-emergence activity against LOLMU [9]: 90%; Post-emergence activity against AVEFA [10]: 90%
O=C(CC1CCC(=O)N1Cc1cccc(F)c1F)Nc1nnc(C(F)F)s1 (racemic) [Example I-195] | – | – | – | – | – | – | – | – | Pre-emergence activity against VIOTR [12]: 80%
CCCNC(=O)CC1CCC(=O)N1Cc1cccc(F)c1F (racemic) [Example I-110] | – | – | – | – | – | – | 80% | – | –
Cc1ccc(OCCOC(=O)CC2CCC(=O)N2Cc2cccc(F)c2F)cc1 (stereo not shown) [Example I-034, 2-(4-methylphenoxy)ethyl 2-[1-[(2,3-difluorophenyl)methyl]-5-oxo-pyrrolidin-2-yl]acetate] | 80% | 100% | 90% | – | 90% | 80% | 80% | 90% | Pre-emergence activity against VERPE [13]: 100%; Post-emergence activity against SETVI [14]: 80%
COc1ccc(SCCOC(=O)CC2CCC(=O)N2Cc2cccc(F)c2F)cc1 (racemic) [Example I-040] | 80% | 90% | 90% | 80% | 80% | 90% | 80% | 80% | Pre-emergence activity against VERPE [13]: 90%
COC(=O)[C@H](Cc1c[nH]cn1)NC(=O)CC1CCC(=O)N1Cc1cccc(F)c1F (single isomer, unassigned) [Example I-037] | 90% | 100% | 90% | 100% | – | 80% | 80% | – | Pre-emergence activity against SETVI [8]: 90%; Pre-emergence activity against LOLMU [9]: 90%; Post-emergence activity against AVEFA [10]: 90%
